Holding throughout (format): cell-based
The nature of series [1]: Compound cytotoxicity in the absence of virus (CellTiter-Glo). As to conditions: human; non-infected HOS cultures, cell viability; read-out: Cytotox (pIC50) (converted). How it is done: (§1) Compounds were profiled against two HIV-1 viruses, the M-tropic (CCR5 utilizing) Ba-L strain and the T-tropic (CXCR4 utilizing) IIIB strain. Both viruses were propagated in human peripheral blood lymphocytes. Compounds were tested for there ability to block infection of the HOS cell line (expressing hCXCR4/hCCR5/hCD4/pHIV-LTR-luciferase) by either HIV-1 Ba-L or HIV-1 IIIB. Compound cytotoxicity was also examined in the absence of virus addition.
(§2) HOS cells (expressing hCXCR4/hCCR5/hCD4/pHIV-LTR-luciferase) were harvested and diluted in Dulbeccos modified Eagles media supplemented with 2% FCS and non-essential amino acid to a concentration of 60,000 cells/ml. The cells were plated into 96-well plates (100 ul per well) and the plates were placed in a tissue culture incubator (37° C.; 5% CO2/95% air) for a period of 24 h.
(§3) Subsequently, 50 ul of the desired drug solution (4 times the final concentration) was added to each well and the plates were returned to the tissue culture incubator (37° C.; 5% CO2/95% air) for 1 h. Following this incubation 50 ul of diluted virus was added to each well (approximately 2 million RLU per well of virus). The plates were returned to the tissue culture incubator (37° C.; 5% CO2/95% air) and were incubated for a further 96 h.
(§4) Following this incubation the endpoint for the virally infected cultures was quantified following addition of Steady-Glo Luciferase assay system reagent (Promega, Madison, Wis.). Cell viability or non-infected cultures was measured using a CellTiter-Glo luminescent cell viability assay system (Promega, Madison, Wis.). All luminescent readouts are performed on a Topcount luminescence detector (Packard, Meridien, Conn.).
(ATP-based viability assays read luminescence as a measure of living cells.)

In series [2] the target is T1, CXCR4 receptor (Homo sapiens, UniProt P61073).
T1 construct: expressed in transfected cells; host or cells: HEK-293 cells (stably expressing human macrophage scavenging receptor) transduced with human CXCR4 BacMam and Gqi5 BacMam
Kind of series: Functional FLIPR assay (block of SDF-1 alpha induced [Ca2+]i change). The following applies: HEK-293 cells with human CXCR4 BacMam and Gqi5 BacMam; antagonism of SDF-1 alpha; read-out: Functional assay (pIC50) (converted). Here is the method:
Human embryonic kidney (HEK-293) cells were maintained and harvested as described above. Cells were plated in 96-well, black clear bottom, poly-lysine coated plates at a concentration of 40,000 cells per well in a final volume of 100 ul containing human CXCR4 BacMam (MOI=25) and Gqi5 BacMam (MOI=12.5). The cells were incubated at 37° C., 5% CO2, 95% humidity for 24 h to allow for protein expression.
After the required incubation time the cells were washed once with 50 ul of fresh serum-free DMEM/F12 media containing probenicid. 50 ul of dye solution was then added to the cells (Calcium Plus Assay Kit Dye; Molecular Devices) was dissolved in 200 ml of the above probenicid/BSA containing media and incubated for 1 h. Cell plates were transferred to a Fluorometric Imaging Plate Reader (FLIPR). Upon addition the effect of the compounds on the change in [Ca^2+]i was examined to determine if the compounds were agonists or antagonists (ability to block SDF-1 alpha activity) at the CXCR4 receptor. IC50 values are determined and pKb values are calculated using the Leff and Dougall equation: KB=IC50/((2+([agonist]/EC50̂b)̂1/b -1) Where IC50 is that defined by the antagonist concentration-response curve [agonist] is the EC80 concentration of agonist used EC50 is that defined by the agonist concentration-response curve b is the slope of the agonist concentration-response curve.

Series [3] concerns HIV-1 gp160 (HXB2 strain) mediated fusion with HOS (hCXCR4/hCCR5/hCD4/pHIV-LTR-luciferase) cells. Kind of series: Cell/cell fusion assay (HEK-293 expressing HIV-1 tat, rev, gp160 with HOS hCXCR4/hCCR5/hCD4/pHIV-LTR-luciferase cells). As to conditions: Homo sapiens, HEK293; luciferase readout after 24 h; read-out: Fusion assay (pIC50) (converted). An excerpt: The complete coding sequences of HIV-1 tat (GenBank Accession No. X07861) and rev (GenBank Accession No. M34378) were cloned into pcDNA3.1 expression vectors containing G418 and hygromycin resistance genes, respectively. The complete coding sequence of the HIV-1 (HXB2 strain) gp160 envelope gene (nucleotide bases 6225-8795 of GenBank Accession No. K03455) was cloned into plasmid pCRII-TOPO. The three HIV genes were additionally inserted into the baculovirus shuttle vector, pFastBacMam1, under the transcriptional control of the CMV promoter. A construction of the pHIV-I LTR containing mutated NFkB sequences linked to the luciferase reporter gene was prepared by digesting pcDNA3.1, containing the G418 resistance gene, with Nru I and Bam HI to remove the CMV promoter. LTR-luc was then cloned into the Nru I/Bam HI sites of the plasmid vector. Plasmid preparations were performed after the plasmids were amplified in Escherichia coli strain DH5-alpha. The fidelity of the inserted sequences was confirmed by double-strand nucleotide sequencing using an ABI Prism Model 377 automated sequencer.
Recombinant BacMam baculoviruses were constructed from pFastBacMam shuttle plasmids by using the bacterial cell-based Bac-to-Bac system. Viruses were propagated in Sf9 (Spodoptera frugiperda) cells cultured in Hink's TNM-FH Insect media supplemented with 10% (v/v) fetal bovine serum and 0.1% (v/v) pluronic F-68 according to established protocols.
Human osteosarcoma (HOS) cells that naturally express human CXCR4 were transfected with human CCR5, human CD4 and the pHIV-LTR-luciferase plasmid using FuGENE 6 transfection reagent. Single cells were isolated and grown under selection condition in order to generate a stable HOS (hCXCR4/hCCR5/hCD4/pHIV-LTR-luciferase) clonal cell line. The cells were maintained in Dulbeccos modified Eagles media supplemented with 10% fetal calf serum (FCS), G418 (400 ug/ml), puromycin (1 ug/ml), mycophenolic acid (40 ug/ml), xanthine (250 ug/ml) and hypoxanthine (13.5 ug/ml) to maintain a selection pressure for cells expressing the LTR-luciferase, hCCR5 and hCD4, respectively. Human embryonic kidney (HEK-293) cells stably transfected to express the human macrophage scavenging receptor (Class A, type 1; GenBank Accession No. D90187), were maintained in DMEM/F-12 media (1:1) supplemented with 10% FCS and 1.5 ug/ml puromycin. The expression of this receptor by the HEK-293 cells enhances their ability to stick to tissue culture treated plasticware.
HEK-293 cells were harvested using enzyme-free cell dissociation buffer. The cells were resuspended in DMEM/F-12 media supplemented with 10% FCS and 1.5 ug/ml and counted. Tranductions were performed by direct addition of BacMam baculovirus containing insect cell media to cells. The cells were simultaneously transduced with BacMam baculovirus expressing HIV-1 tat, HIV-1 rev and HIV-1 gp160 (from the HXB2 HIV strain). Routinely an MOI of 10 of each virus was added to the media containing the cells. 2 mM butyric acid was also added to the cells at this stage to increase protein expression in transduced cells. The cells were subsequently mixed and seeded into a flask at 30 million cells per T225. The cells were incubated at 37° C., 5% CO2, 95% humidity for 24 h to allow for protein expression.
HEK and HOS cells were harvested in DMEM/F-12 media containing 2% FCS and DMEM media containing 2% FCS, respectively, with no selection agents added. Compounds were plated as 1 ul spots in 100% DMSO on a 96-well CulturPlate plates. HOS cells (50 ul) were added first to the wells, followed immediately by the HEK cells (50 ul). The final concentration of each cell type was 20,000 cells per well. Following these additions, the cells were returned to a tissue culture incubator (37° C.; 5% CO2/95% air) for an additional 24 h.
Following the 24 h incubation, total cellular luciferase activity was measured using the LucLite Plus assay kit (Packard, Meridien, Conn.). […]

Series [4] relates to HIV-1 IIIB strain, T-tropic (CXCR4 utilizing). Put plainly: HOS HIV-1 infectivity assay. How it is done:
as §1, §2, §3, §4

[5] abbreviates: Human immunodeficiency virus 1, IIIB, HOS HIV anti-infectivity assay, strain not named in Table 2, read-out: Activity Level.
The mark [6] stands for this setting: Human immunodeficiency virus 1, HOS cells, HIV-1 IIIB, 96 h, luciferase, read-out: HOS (3B).

This note sets out measurements from patent US20080171740A1, “Chemical Compounds” (SMITHKLINE BEECHAM CORPORATION, priority 2004, published 2008).

Read-outs that look alike come from different tables or passages of the source.

T1 sequence (P61073 whole entry): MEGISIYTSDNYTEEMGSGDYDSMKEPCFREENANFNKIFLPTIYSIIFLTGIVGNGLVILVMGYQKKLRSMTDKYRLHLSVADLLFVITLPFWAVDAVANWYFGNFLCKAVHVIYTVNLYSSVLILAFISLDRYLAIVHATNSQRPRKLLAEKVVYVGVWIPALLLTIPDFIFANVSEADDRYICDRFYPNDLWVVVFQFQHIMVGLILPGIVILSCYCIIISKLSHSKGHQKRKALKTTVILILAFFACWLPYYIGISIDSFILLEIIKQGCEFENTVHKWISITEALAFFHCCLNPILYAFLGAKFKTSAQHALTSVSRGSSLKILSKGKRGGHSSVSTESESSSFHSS

As to `NCCCCN(Cc1cn2c(N)cccc2n1)C1CCCc2cccnc21` (stereo not shown) [Example 26, N-[(5-Aminoimidazo[1,2-a]pyridin-2-yl)methyl]-N-(5,6,7,8-tetrahydro-8-quinolinyl)-1,4-butanediamine], the IC50 at 96 h in series [1] is over 100 µM. For the same molecule, the IC50 in series [2] was 0.0115 µM; in series [3], 0.0398 µM; in series [4] (setting [5]) it was under 0.1 µM; in series [4] (setting [6]) it was 0.014 µM.

With `NCCCCN(Cc1cn2c(C(F)(F)F)cccc2n1)C1CCCc2cccnc21` (stereo not shown) [Example 8, N-(5,6,7,8-Tetrahydro-8-quinolinyl)-N-{[5-(trifluoromethyl)imidazo[1,2-a]pyridin-2-yl]methyl}-1,4-butanediamine], in series [1], the IC50 at 96 h was over 100 µM. Moreover, the IC50 in series [2] was 0.0195 µM; in series [3], 0.174 µM; in series [4] (setting [5]), under 0.1 µM; in series [4] (setting [6]) it was 0.045 µM.

For the molecule `NCCCCN(Cc1cn2cc(Cl)ccc2n1)C1CCCc2cccnc21` (stereo not shown) [Example 10, N-[(6-Chloroimidazo[1,2-a]pyridin-2-yl)methyl]-N-(5,6,7,8-tetrahydro-8-quinolinyl)-1,4-butanediamine], the IC50 at 96 h in series [1] is over 100 µM. Besides, the IC50 in series [2] is 0.0295 µM; in series [3], 0.115 µM; in series [4] (setting [5]), under 0.1 µM; in series [4] (setting [6]) it was 0.041 µM.

With `NCCCCN(Cc1cn2cc(F)ccc2n1)C1CCCc2cccnc21` (stereo not shown) [Example 11, N-[(6-Fluoroimidazo[1,2-a]pyridin-2-yl)methyl]-N-(5,6,7,8-tetrahydro-8-quinolinyl)-1,4-butanediamine], in series [1], the IC50 at 96 h is over 100 µM. The IC50 in series [2] was 0.017 µM; in series [3] it was 0.0631 µM; in series [4] (setting [5]), under 0.1 µM; in series [4] (setting [6]) it was 0.033 µM.

As to `Cc1cccc2nc(CN(CCCCN)C3CCCc4cccnc43)cn12` (stereo not shown) [Example 5, N-[(5-Methylimidazo[1,2-a]pyridin-2-yl)methyl]-N-(5,6,7,8-tetrahydro-8-quinolinyl)-1,4-butanediamine], the IC50 at 96 h in series [1] is over 100 µM. In addition, the IC50 in series [2] was 0.012 µM; in series [3], 0.0398 µM; in series [4] (setting [5]), under 0.1 µM; in series [4] (setting [6]), 0.017 µM.

With `NCCCCN(Cc1cn2c(Br)cccc2n1)C1CCCc2cccnc21` (stereo not shown) [Example 12, N-[(5-Bromoimidazo[1,2-a]pyridin-2-yl)methyl]-N-(5,6,7,8-tetrahydro-8-quinolinyl)-1,4-butanediamine], the IC50 at 96 h in series [1] is over 100 µM. In addition, the IC50 in series [2] was 0.00977 µM; in series [3], 0.0288 µM; in series [4] (setting [5]), under 0.1 µM; in series [4] (setting [6]), 0.01 µM.

With `NCCCCN(Cc1cn2ccc(C(F)(F)F)cc2n1)C1CCCc2cccnc21` (stereo not shown) [Example 6, N-(5,6,7,8-Tetrahydro-8-quinolinyl)-N-{[7-(trifluoromethyl)imidazo[1,2-a]pyridin-2-yl]methyl}-1,4-butanediamine], the IC50 at 96 h in series [1] is over 100 µM. The IC50 is 2.19 µM in series [2], 4.47 µM in series [3], 0.5 to 10 µM in series [4] (setting [5]) and 1.4 µM in series [4] (setting [6]).

Take `Cc1ccn2cc(CN(CCCCN)C3CCCc4cccnc43)nc2c1` (stereo not shown) [Example 3, N-[(7-Methylimidazo[1,2-a]pyridin-2-yl)methyl]-N-(5,6,7,8-tetrahydro-8-quinolinyl)-1,4-butanediamine]: the IC50 at 96 h in series [1] was over 100 µM. For the same molecule, the IC50 in series [2] is 0.759 µM; in series [3] it was 0.813 µM; in series [4] (setting [5]), 0.1 to 0.5 µM; in series [4] (setting [6]), 0.223 µM.

In the case of `COc1cccc2nc(CN(CCCCN)C3CCCc4cccnc43)cn12` (stereo not shown) [Example 25, N-{[5-(Methyloxy)imidazo[1,2-a]pyridin-2-yl]methyl}-N-(5,6,7,8-tetrahydro-8-quinolinyl)-1,4-butanediamine], the IC50 at 96 h in series [1] was over 100 µM. In addition, the IC50 is 0.0102 µM in series [2], 0.123 µM in series [3], under 0.1 µM in series [4] (setting [5]) and 0.015 µM in series [4] (setting [6]).

Consider `Cc1cc(Br)c2nc(CN(CCCCN)C3CCCc4cccnc43)cn2c1` (stereo not shown) [Example 20, N-[(8-Bromo-6-methylimidazo[1,2-a]pyridin-2-yl)methyl]-N-(5,6,7,8-tetrahydro-8-quinolinyl)-1,4-butanediamine], for which the IC50 at 96 h in series [1] is over 100 µM. For the same molecule, the IC50 in series [2] is 0.135 µM; in series [3], 2.29 µM; in series [4] (setting [5]), 0.1 to 0.5 µM; in series [4] (setting [6]), 0.31 µM.

As to `NCCCCN(Cc1cn2cc(Cl)cc(Cl)c2n1)C1CCCc2cccnc21` (stereo not shown) [Example 16, N-[(6,8-Dichloroimidazo[1,2-a]pyridin-2-yl)methyl]-N-(5,6,7,8-tetrahydro-8-quinolinyl)-1,4-butanediamine], the IC50 at 96 h in series [1] was over 100 µM. In addition, the IC50 in series [2] was 0.049 µM; in series [3], 1.29 µM; in series [4] (setting [5]) it was 0.1 to 0.5 µM; in series [4] (setting [6]) it was 0.133 µM.
